# Assay results: the supplement of paper PMC8617591
# Tests used:
# [1] = test system: Mycobacterium tuberculosis Erdman (autoluminescent); assay: Einf, fitted maximum growth inhibition of combination (fraction); higher = stronger maximal inhibition
# Method: (§1)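 DiaMOND equipotent two-drug combination dose responses against autoluminescent M. tuberculosis Erdman in 8 in vitro models. Read-out is OD600, or luminescence for the intracellular and dormancy models, normalised to untreated wells. Hill-fit Einf, AUC25 and GRinf are potency metrics; FIC50 and FIC90 are Loewe-additivity fractional inhibitory concentrations, given as log2 (negative = synergy). Replicates are averaged.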
# [2] = test system: Mycobacterium tuberculosis Erdman (autoluminescent); assay: GRinf, maximum normalised growth rate inhibition (unitless (-1 to 1)); higher = less effect (negative = killing)
# Method: as §1
# [3] = test system: Mycobacterium tuberculosis Erdman (autoluminescent); assay: FIC90 (Loewe) at 90% inhibition (log2); higher = more antagonistic
# Method: as §1
# [4] = test system: Mycobacterium tuberculosis Erdman (autoluminescent); assay: FIC50 (Loewe) at 50% inhibition (log2); higher = more antagonistic
# Method: as §1
# [5] = test system: Mycobacterium tuberculosis Erdman (autoluminescent); assay: AUC25, normalised area under dose response up to IC25 (fraction (0-1)); higher = more potent at low dose
# Method: as §1
# [6] = in vitro model: acidic pH 5.7, time point: constant (~7 days, model-specific)
# [7] = in vitro model: acidic pH 5.7, time point: terminal (~4-5 doublings, model-specific)
# [8] = in vitro model: butyrate, time point: constant (~7 days, model-specific)
# [9] = in vitro model: butyrate, time point: terminal (~4-5 doublings, model-specific)
# [10] = in vitro model: cholesterol 0.05 mM, time point: constant (~7 days, model-specific)
# [11] = in vitro model: cholesterol 0.05 mM, time point: terminal (~4-5 doublings, model-specific)
# [12] = in vitro model: cholesterol-high 0.2 mM, time point: constant (~7 days, model-specific)
# [13] = in vitro model: cholesterol-high 0.2 mM, time point: terminal (~4-5 doublings, model-specific)
# [14] = in vitro model: dormancy (butyrate + nitrate, low O2), time point: constant (~7 days, model-specific)
# [15] = in vitro model: dormancy (butyrate + nitrate, low O2), time point: terminal (~4-5 doublings, model-specific)
# [16] = in vitro model: intracellular J774, time point: constant = terminal
# [17] = in vitro model: standard 7H9 glycerol, time point: constant = terminal
# [18] = in vitro model: valerate, time point: constant (~7 days, model-specific)
# [19] = in vitro model: valerate, time point: terminal (~4-5 doublings, model-specific)
compound,measurement,setting,value
CC(C)/N=c1\cc2n(-c3ccc(Cl)cc3)c3ccccc3nc-2cc1Nc1ccc(Cl)cc1 [clofazimine] + CC(=O)NC[C@H]1CN(c2ccc(N3CCOCC3)c(F)c2)C(=O)O1 [linezolid],Einf,[1]; [6],0.864
same,Einf,[1]; [7],0.973
same,Einf,[1]; [8],0.957
same,Einf,[1]; [9],0.98
same,Einf,[1]; [10],0.747
same,Einf,[1]; [11],0.951
same,Einf,[1]; [12],0.917
same,Einf,[1]; [13],0.994
same,Einf,[1]; [14],0.901
same,Einf,[1]; [15],0.981
same,Einf,[1]; [16],0.855
same,Einf,[1]; [17],0.979
same,Einf,[1]; [18],0.925
same,Einf,[1]; [19],0.944
same,GRinf,[2]; [6],-0.00597
same,GRinf,[2]; [7],-0.305
same,GRinf,[2]; [8],-0.158
same,GRinf,[2]; [9],-0.142
same,GRinf,[2]; [10],-0.0419
same,GRinf,[2]; [11],-0.35
same,GRinf,[2]; [12],-0.536
same,GRinf,[2]; [13],-0.854
same,GRinf,[2]; [14],0.239
same,GRinf,[2]; [15],-0.123
same,GRinf,[2]; [16],-0.0533
same,GRinf,[2]; [17],-0.276
same,GRinf,[2]; [18],-0.186
same,GRinf,[2]; [19],-0.107
same,FIC90,[3]; [7],0.0194
same,FIC90,[3]; [8],0.875
same,FIC90,[3]; [9],0.85
same,FIC90,[3]; [11],1.4
same,FIC90,[3]; [12],1.38
same,FIC90,[3]; [13],0.449
same,FIC90,[3]; [14],0.93
same,FIC90,[3]; [15],0.839
same,FIC90,[3]; [16],0.457
same,FIC90,[3]; [17],0.696
same,FIC90,[3]; [18],0.827
same,FIC90,[3]; [19],0.597
same,FIC50,[4]; [6],0.346
same,FIC50,[4]; [7],0.329
same,FIC50,[4]; [8],0.573
same,FIC50,[4]; [9],0.626
same,FIC50,[4]; [10],-0.262
same,FIC50,[4]; [11],-0.033
same,FIC50,[4]; [12],0.143
same,FIC50,[4]; [13],-0.317
same,FIC50,[4]; [14],1.67
same,FIC50,[4]; [15],1.05
same,FIC50,[4]; [17],0.286
same,FIC50,[4]; [18],-0.104
same,FIC50,[4]; [19],0.165
same,AUC25,[5]; [6],0.0778
same,AUC25,[5]; [7],0.111
same,AUC25,[5]; [8],0.113
same,AUC25,[5]; [9],0.0908
same,AUC25,[5]; [10],0.152
same,AUC25,[5]; [11],0.164
same,AUC25,[5]; [12],0.131
same,AUC25,[5]; [13],0.133
same,AUC25,[5]; [14],0.0454
same,AUC25,[5]; [15],0.0463
same,AUC25,[5]; [17],0.117
same,AUC25,[5]; [18],0.148
same,AUC25,[5]; [19],0.0982
CC(C)/N=c1\cc2n(-c3ccc(Cl)cc3)c3ccccc3nc-2cc1Nc1ccc(Cl)cc1 [clofazimine] + CC[C@@H](CO)NCCN[C@@H](CC)CO [ethambutol],Einf,[1]; [6],0.702
same,Einf,[1]; [7],0.937
same,Einf,[1]; [8],0.947
same,Einf,[1]; [9],0.975
same,Einf,[1]; [10],0.635
same,Einf,[1]; [11],0.854
same,Einf,[1]; [12],0.983
same,Einf,[1]; [13],0.999
same,Einf,[1]; [14],0.788
same,Einf,[1]; [15],0.967
same,Einf,[1]; [16],1
same,Einf,[1]; [17],0.963
same,Einf,[1]; [18],0.899
same,Einf,[1]; [19],0.913
same,GRinf,[2]; [6],0.0851
same,GRinf,[2]; [7],-0.228
same,GRinf,[2]; [8],-0.0791
same,GRinf,[2]; [9],-0.0975
same,GRinf,[2]; [10],-0.0623
same,GRinf,[2]; [11],-0.424
same,GRinf,[2]; [12],-0.666
same,GRinf,[2]; [13],-0.935
same,GRinf,[2]; [14],0.516
same,GRinf,[2]; [15],-0.0829
same,GRinf,[2]; [16],-0.789
same,GRinf,[2]; [17],-0.234
same,GRinf,[2]; [18],-0.321
same,GRinf,[2]; [19],-2.83e-05
same,FIC90,[3]; [7],0.294
same,FIC90,[3]; [9],0.104
same,FIC90,[3]; [13],0.466
same,FIC90,[3]; [15],0.818
same,FIC90,[3]; [16],-0.448
same,FIC90,[3]; [17],0.12
same,FIC90,[3]; [19],-0.728
same,FIC50,[4]; [6],0.298
same,FIC50,[4]; [7],0.474
same,FIC50,[4]; [8],0.311
same,FIC50,[4]; [9],0.299
same,FIC50,[4]; [10],0.526
same,FIC50,[4]; [11],0.199
same,FIC50,[4]; [12],0.491
same,FIC50,[4]; [13],0.255
same,FIC50,[4]; [14],-0.136
same,FIC50,[4]; [15],0.277
same,FIC50,[4]; [17],-0.113
same,FIC50,[4]; [18],0.000309
same,FIC50,[4]; [19],0.0811
same,AUC25,[5]; [6],0.101
same,AUC25,[5]; [7],0.0812
same,AUC25,[5]; [8],0.0939
same,AUC25,[5]; [9],0.0809
same,AUC25,[5]; [10],0.13
same,AUC25,[5]; [11],0.137
same,AUC25,[5]; [12],0.089
same,AUC25,[5]; [13],0.0861
same,AUC25,[5]; [14],0.0731
same,AUC25,[5]; [15],0.114
same,AUC25,[5]; [17],0.111
same,AUC25,[5]; [18],0.144
same,AUC25,[5]; [19],0.0819
CC(C)/N=c1\cc2n(-c3ccc(Cl)cc3)c3ccccc3nc-2cc1Nc1ccc(Cl)cc1 [clofazimine] + CO[C@H]1/C=C/O[C@@]2(C)Oc3c(C)c(O)c4c(O)c(c(/C=N/N5CCN(C6CCCC6)CC5)c(O)c4c3C2=O)NC(=O)/C(C)=C\C=C\[C@H](C)[C@H](O)[C@@H](C)[C@@H](O)[C@@H](C)[C@H](OC(C)=O)[C@@H]1C [rifapentine],Einf,[1]; [6],0.879
same,Einf,[1]; [7],0.986
same,Einf,[1]; [8],0.95
same,Einf,[1]; [9],0.986
same,Einf,[1]; [10],0.651
same,Einf,[1]; [11],0.887
same,Einf,[1]; [12],0.924
same,Einf,[1]; [13],0.996
same,Einf,[1]; [14],0.932
same,Einf,[1]; [15],0.984
same,Einf,[1]; [16],0.988
same,Einf,[1]; [17],0.967
same,Einf,[1]; [18],0.885
same,Einf,[1]; [19],0.918
same,GRinf,[2]; [6],-0.198
same,GRinf,[2]; [7],-0.304
same,GRinf,[2]; [8],-0.0864
same,GRinf,[2]; [9],-0.0855
same,GRinf,[2]; [10],-0.17
same,GRinf,[2]; [11],-0.127
same,GRinf,[2]; [12],-0.717
same,GRinf,[2]; [13],-0.813
same,GRinf,[2]; [14],0.0493
same,GRinf,[2]; [15],-0.373
same,GRinf,[2]; [16],-0.308
same,GRinf,[2]; [17],-0.11
same,GRinf,[2]; [18],-0.112
same,GRinf,[2]; [19],0.116
same,FIC90,[3]; [6],0.794
same,FIC90,[3]; [7],0.123
same,FIC90,[3]; [8],0.54
same,FIC90,[3]; [9],0.504
same,FIC90,[3]; [11],1.44
same,FIC90,[3]; [12],1.06
same,FIC90,[3]; [13],0.543
same,FIC90,[3]; [14],0.16
same,FIC90,[3]; [15],0.536
same,FIC90,[3]; [16],0.278
same,FIC90,[3]; [17],0.35
same,FIC90,[3]; [19],0.667
same,FIC50,[4]; [6],0.0615
same,FIC50,[4]; [7],-0.0081
same,FIC50,[4]; [8],0.36
same,FIC50,[4]; [9],0.279
same,FIC50,[4]; [10],1.24
same,FIC50,[4]; [11],1.3
same,FIC50,[4]; [12],0.657
same,FIC50,[4]; [13],0.714
same,FIC50,[4]; [14],0.121
same,FIC50,[4]; [15],0.512
same,FIC50,[4]; [17],0.18
same,FIC50,[4]; [18],0.297
same,FIC50,[4]; [19],0.0341
same,AUC25,[5]; [6],0.0913
same,AUC25,[5]; [7],0.0911
same,AUC25,[5]; [8],0.112
same,AUC25,[5]; [9],0.0945
same,AUC25,[5]; [10],0.137
same,AUC25,[5]; [11],0.111
same,AUC25,[5]; [12],0.102
same,AUC25,[5]; [13],0.0885
same,AUC25,[5]; [14],0.0864
same,AUC25,[5]; [15],0.057
same,AUC25,[5]; [17],0.1
same,AUC25,[5]; [18],0.136
same,AUC25,[5]; [19],0.0746
